From the NIST ThermoML archive (doi:10.1021/acs.jced.8b00460)
Numbers after ± are expanded uncertainties.

Conditions: 511.35 K; Liquid; Ebulliometric method (Recirculating still)

For `O=C(OCCOCCOC(=O)c1ccccc1)c1ccccc1` [diethylene glycol dibenzoate], the “vapor or sublimation pressure” value was 1.015 ± 0.1 kPa.
